Laboratory results published in ChEMBL document CHEMBL1126121, “Non-prostanoid thromboxane A2 receptor antagonists with a dibenzoxepin ring system. 1” (J Med Chem, 1992).
Several values for one entry are separate records, joined by “and”; a condition that tells them apart may be missing. Equal entries are not always repeated.

Experiments:
Cavia porcellus [1] = test: Inhibitory effect of the compounds on U-46619-induced platelet aggregation ex vivo in guinea pig at the dose of 10 mg/kg 4 hr after oral administration; format: functional
Cavia porcellus [2] = test: Inhibitory effect of the compounds on U-46619-induced platelet aggregation ex vivo in guinea pig at the dose of 10 mg/kg 7 hr oral after administration; format: functional
Cavia porcellus [3] = test: Compound was tested ex vivo for it's inhibition of U-46619 induced platelet aggregation in the guinea pig after 2 hr of administration at dose 10 mg/kg; format: functional
Cavia porcellus [4] = test: Compound was tested ex vivo for it's inhibition of U-46619 induced platelet aggregation in the guinea pig after 4 hr of administration at dose 10 mg/kg; format: functional
Cavia porcellus [5] = test: Compound was tested ex vivo for it''s inhibition of U-46619 induced platelet aggregation in the guinea pig after 7 hr of administration at dose 10 mg/kg; format: functional
Cavia porcellus [6] = test: Inhibitory effect of the compounds on U-46619-induced platelet aggregation ex vivo in guinea pig at the dose of 10 mg/kg 2 hr after oral administration; format: functional
[7] = target: T1, Thromboxane A2 receptor (Homo sapiens) (UniProt P21731); test: Binding affinity for thromboxane A2 receptor by measuring ability to displace [3H]U-46619 from guinea pig platelets at 1 uM; conditions: Cavia porcellus, target entry is the homologue from another species
T1 sequence (whole entry): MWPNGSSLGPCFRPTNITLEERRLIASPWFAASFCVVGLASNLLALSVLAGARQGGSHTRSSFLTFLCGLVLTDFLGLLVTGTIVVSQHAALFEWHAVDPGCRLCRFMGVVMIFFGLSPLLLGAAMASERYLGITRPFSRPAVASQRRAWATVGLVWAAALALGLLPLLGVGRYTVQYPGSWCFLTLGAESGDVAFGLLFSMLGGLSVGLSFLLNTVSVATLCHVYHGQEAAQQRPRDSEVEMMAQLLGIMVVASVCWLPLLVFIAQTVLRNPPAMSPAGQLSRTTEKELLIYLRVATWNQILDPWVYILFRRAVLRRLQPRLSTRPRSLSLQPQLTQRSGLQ

[8] = target: T1, Thromboxane A2 receptor (Homo sapiens); test: Binding affinity for thromboxane A2 receptor by measuring its ability to displace [3H]U-46619 from guinea pig platelets at 0.1 uM; conditions: Cavia porcellus, target entry is the homologue from another species
[9] = target: T1, Thromboxane A2 receptor (Homo sapiens); test: Inhibitory effect against binding thromboxane A2 receptor on guinea pig platelets using [3H]U-46619 as radioligand at 1 uM concentration; conditions: Cavia porcellus, target entry is the homologue from another species
Cavia porcellus [10] = test: Compound was tested ex vivo for it''s inhibition of U-46619 induced platelet aggregation in the guinea pig ex vivo after 7 hr of administration at dose 10 mg/kg; format: functional
[11] = target: T2, Thromboxane-A synthase (Homo sapiens) (UniProt P24557); test: Inhibitory activity against thromboxane A2 synthase obtained from bovine platelet microsomes at 10 uM; conditions: Bos taurus, target entry is the homologue from another species
T2 sequence (whole entry): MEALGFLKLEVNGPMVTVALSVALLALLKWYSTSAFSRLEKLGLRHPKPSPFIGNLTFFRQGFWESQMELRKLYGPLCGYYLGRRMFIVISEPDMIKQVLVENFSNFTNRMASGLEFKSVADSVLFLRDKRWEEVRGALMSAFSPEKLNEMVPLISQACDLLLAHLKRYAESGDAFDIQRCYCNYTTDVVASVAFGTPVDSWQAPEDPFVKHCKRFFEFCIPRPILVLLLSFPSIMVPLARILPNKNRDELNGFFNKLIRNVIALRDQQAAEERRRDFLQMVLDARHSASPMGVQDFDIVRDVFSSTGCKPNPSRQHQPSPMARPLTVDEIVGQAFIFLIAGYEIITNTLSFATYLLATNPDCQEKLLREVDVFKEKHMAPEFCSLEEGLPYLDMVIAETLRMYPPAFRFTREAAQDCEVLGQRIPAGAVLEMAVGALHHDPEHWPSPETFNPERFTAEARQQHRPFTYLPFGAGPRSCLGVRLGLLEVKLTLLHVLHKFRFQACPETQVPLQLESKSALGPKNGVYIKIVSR

[12] = tested on: Thromboxane-A synthase (Bos taurus); test: Inhibitory effect against thromboxane A2 synthase from bovine platelets at 10 uM concentration
[13] = target: T1, Thromboxane A2 receptor (Homo sapiens); test: Compound was tested for its binding affinity at TXA2 receptor by measuring its ability to displace [3H]U-46619 from guinea pig platelets at 1 uM; conditions: Cavia porcellus, target entry is the homologue from another species
[14] = target: T1, Thromboxane A2 receptor (Homo sapiens); test: Compound was tested for its binding affinity at Thromboxane A2 receptor by measuring its ability to displace [3H]-U-46,619 from guinea pig platelets at 1 uM; conditions: Cavia porcellus, target entry is the homologue from another species
[15] = target: T1, Thromboxane A2 receptor (Homo sapiens); test: Compound was tested for its binding affinity at Thromboxane A2 receptor by measuring its ability to displace [3H]U-46619 from guinea pig platelets; conditions: Cavia porcellus; target entry is the homologue from another species; concentration not given here
Cavia porcellus [16] = test: Inhibitory effect of the compounds on U-46619-induced platelet aggregation ex vivo in guinea pig at the dose of 100 mg/kg 2 hr after oral administration; format: functional
Cavia porcellus [17] = test: Inhibitory effect of the compounds on U-46619-induced platelet aggregation ex vivo in guinea pig at the dose of 100 mg/kg 4 hr after oral administration; format: functional
Cavia porcellus [18] = test: Inhibitory effect of the compounds on U-46619-induced platelet aggregation ex vivo in guinea pig at the dose of 30 mg/kg 2 hr after oral administration; format: functional
Cavia porcellus [19] = test: Compound was tested ex vivo for it's inhibition of U-46619 induced platelet aggregation in the guinea pig after 2 hr of administration at dose 100 mg/kg; format: functional
Cavia porcellus [20] = test: Compound was tested ex vivo for it's inhibition of U-46619 induced platelet aggregation in the guinea pig after 2 hr of administration at dose 30 mg/kg; format: functional
Cavia porcellus [21] = test: Compound was tested ex vivo for it's inhibition of U-46619 induced platelet aggregation in the guinea pig after 4 hr of administration at dose 100 mg/kg; format: functional
Cavia porcellus [22] = test: Compound was tested ex vivo for it's inhibition of U-46619 induced platelet aggregation in the guinea pig after 4 hr of administration at dose 30 mg/kg; format: functional
Cavia porcellus [23] = test: Compound was tested ex vivo for it''s inhibition of U-46619 induced platelet aggregation in the guinea pig after 2 hr of administration at dose 10 mg/kg; format: functional
Cavia porcellus [24] = test: Compound was tested ex vivo for it''s inhibition of U-46619 induced platelet aggregation in the guinea pig after 4 hr of administration at dose 10 mg/kg; format: functional

SMILES | Platelet aggregation (Cavia porcellus [1]) | Aggregation (Cavia porcellus [3]) | Aggregation (Cavia porcellus [4]) | Platelet aggregation (Cavia porcellus [6]) | inhibition [7] | inhibition [8] | inhibition [9] | inhibition [11] | inhibition [12] | further results
O=C(O)c1ccc2c(c1)C(SCCNS(=O)(=O)c1ccccc1)c1ccccc1CO2 (stereo unspecified) | 4.5% | 11.8% | 4.5% | 11.8% | 92% | 72% | 92% and 84% | – | – | Platelet aggregation (Cavia porcellus [2]): 12.3%; Aggregation (Cavia porcellus [5]): 12.3%
O=C(O)c1ccc2c(c1)C(SCCNS(=O)(=O)c1cccs1)c1ccccc1CO2 (stereo unspecified) | 2.1% | 14.3% | 2.1% | 14.3% | 99% | 84% | 99% | 33% | 33% | Platelet aggregation (Cavia porcellus [2]): 12.3%; Aggregation (Cavia porcellus [10]): 12.3%
O=C(O)c1ccc2c(c1)C(SCCNS(=O)(=O)c1ccc3ccccc3c1)c1ccccc1CO2 (stereo unspecified) | – | – | – | – | – | 77% | 95% | 38% | 38% | pInhibition [13]: 95%
O=C(O)c1ccc2c(c1)C(SCCNS(=O)(=O)/C=C/c1ccccc1)c1ccccc1CO2 (racemic) [listing 1 of 2 here] | – | – | – | – | – | – | 97% | – | – | inhibition [14]: 97%; inhibition [15]: 92%
O=C(O)COc1ccc(CCNS(=O)(=O)c2ccccc2)cc1 [SULOTROBAN] | 87% | – | – | – | – | – | 31% | – | – | Platelet aggregation (Cavia porcellus [16]): 12.7%; Platelet aggregation (Cavia porcellus [17]): 57%; Platelet aggregation (Cavia porcellus [18]): 28%; Aggregation (Cavia porcellus [19]): 12.7%; Aggregation (Cavia porcellus [20]): 28%; Aggregation (Cavia porcellus [21]): 57%; Aggregation (Cavia porcellus [22]): 87%; inhibition [14]: 31%; inhibition [15]: -5%
O=C(NCCSC1c2ccccc2COc2ccc(C(=O)O)cc21)OCc1ccccc1 (stereo unspecified) | 57.3% | – | – | 8.7% | 96% | 79% | 96% | 56% | 56% | Aggregation (Cavia porcellus [23]): 8.7%; Aggregation (Cavia porcellus [24]): 57.3%
O=C(O)c1ccc2c(c1)C(SCCNS(=O)(=O)/C=C/c1ccccc1)c1ccccc1CO2 (racemic) [listing 2 of 2 here] | – | 0% | 2.3% | – | – | – | – | – | – | Aggregation (Cavia porcellus [10]): 10.7%
